Structures can show the parent of a compound that is named as a salt.
What follows are molecules tested against T1, recombinant human PARP (PARP1) (Homo sapiens, UniProt P09874) (assay: PARP enzyme assay, Method A (radioactivity or 'ELISA' enzyme assay with partially purified enzyme)). Conditions: recombinant human PARP preparation, radioactive or ELISA enzyme assay.
T1 construct: Full length human PARP (PARP1) is assembled from PCR fragments; His6 tag with TEV site, from the pFastBac-HTb vector (own knowledge of the vector); made in house; host or cells: insect cells, baculovirus (Bac-to-Bac, Gibco-BRL)
Assay type: biochemical
Outline: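 Partially purified recombinant full-length His-tagged human PARP1, baculovirus-expressed. Radioactive format: 100 μg/mL sonicated DNA, 100 μg/mL histones, 100 mM Tris pH 8.0, 10 mM MgCl2, 200 μM labeled NAD, 10 min 37 °C or 60 min RT, TCA-precipitated counts. ELISA format: 250 μM NAD plus biotin-NAD on histone plates, TMB A450.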

T1 sequence (P09874 whole entry, the tested form may be a part): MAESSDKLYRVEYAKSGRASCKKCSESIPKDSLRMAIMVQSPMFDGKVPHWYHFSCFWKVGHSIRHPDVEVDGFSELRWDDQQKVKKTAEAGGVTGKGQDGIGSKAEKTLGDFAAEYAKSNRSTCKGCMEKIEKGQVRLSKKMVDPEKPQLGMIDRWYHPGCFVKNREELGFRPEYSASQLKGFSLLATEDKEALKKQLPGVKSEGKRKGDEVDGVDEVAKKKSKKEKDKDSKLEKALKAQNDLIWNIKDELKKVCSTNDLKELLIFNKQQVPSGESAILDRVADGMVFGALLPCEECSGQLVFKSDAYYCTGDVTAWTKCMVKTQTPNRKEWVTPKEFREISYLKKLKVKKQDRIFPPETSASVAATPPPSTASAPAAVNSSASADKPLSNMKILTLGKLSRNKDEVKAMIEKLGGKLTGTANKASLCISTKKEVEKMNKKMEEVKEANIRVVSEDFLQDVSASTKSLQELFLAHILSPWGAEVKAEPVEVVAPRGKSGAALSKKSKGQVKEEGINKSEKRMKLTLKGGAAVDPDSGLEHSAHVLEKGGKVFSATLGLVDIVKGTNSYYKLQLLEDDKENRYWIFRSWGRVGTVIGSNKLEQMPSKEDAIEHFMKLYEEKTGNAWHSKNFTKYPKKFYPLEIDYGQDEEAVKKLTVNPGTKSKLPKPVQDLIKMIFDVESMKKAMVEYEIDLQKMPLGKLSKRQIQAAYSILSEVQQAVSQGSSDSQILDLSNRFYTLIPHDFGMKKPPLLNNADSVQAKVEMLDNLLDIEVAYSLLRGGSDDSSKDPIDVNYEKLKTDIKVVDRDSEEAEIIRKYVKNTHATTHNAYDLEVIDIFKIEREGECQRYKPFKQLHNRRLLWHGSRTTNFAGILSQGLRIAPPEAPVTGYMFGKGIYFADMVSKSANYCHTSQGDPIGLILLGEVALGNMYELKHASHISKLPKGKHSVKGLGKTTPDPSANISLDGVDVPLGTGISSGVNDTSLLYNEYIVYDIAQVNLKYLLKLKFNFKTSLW

SMILES | IC50
CCc1cc(-c2ccc(S(=O)(=O)NC3CCN(Cc4ccccc4)CC3)s2)c(C)[nH]c1=O [Example 39, 5-(5-Ethyl-2-methyl-6-oxo-1,6-dihydropyridin-3-yl)thiophene-2-sulfonic acid (1-benzylpiperidin-4-yl)amide hydrochloride] | 0.07 µM
CCc1cc(-c2ccc(S(=O)(=O)NCCc3cccnc3)s2)c(C)[nH]c1=O [Example 107, 5-(5-Ethyl-2-methyl-6-oxo-1,6-dihydropyridin-3-yl)thiophene-2-sulfonic acid (2-pyridin-3-yl-ethyl)amide hydrochloride] | 0.08 µM
CCc1cc(-c2ccc(S(=O)(=O)NCCc3ccncc3)s2)c(C)[nH]c1=O [Example 109, 5-(5-Ethyl-2-methyl-6-oxo-1,6-dihydropyridin-3-yl)thiophene-2-sulfonic acid (2-pyridin-4-yl-ethyl)amide hydrochloride] | 0.1 µM
CCc1cc(-c2ccc(CNCCOc3ccccc3)s2)c(C)[nH]c1=O [Example 146, 3-Ethyl-6-methyl-5-{5-[(2-phenoxyethylamino)-methyl]thiophen-2-yl}-1H-pyridin-2-one hydrochloride] | 0.24 µM
CCc1cc(-c2ccc(S(=O)(=O)NCc3nc4ccccc4[nH]3)s2)c(C)[nH]c1=O [Example 118, 5-(5-Ethyl-2-methyl-6-oxo-1,6-dihydro-pyridin-3-yl)thiophene-2-sulfonic acid (1H-benzimidazol-2-ylmethyl)amide hydrochloride] | 0.15 µM

The molecules below were run against recombinantly expressed human PARP-1 enzyme (Homo sapiens, UniProt P09874) (assay: PARP enzyme assay, Method B (tritium-labeled NAD incorporation)). Conditions: Method B; 200 μM NAD, room temperature 1 hour, pH 8.0; read-out: IC50 (μM)/Method B.
Assay type: biochemical
Outline: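 DNA-activated purified recombinant enzyme (2 μg/mL) incubated with test compound for 1 h at room temperature, pH 8.0, with 200 μM NAD plus tritiated NAD, DNA and histones. TCA-precipitated radiolabelled protein collected on glass-fibre filters and counted; IC50 is the concentration halving incorporation versus no-inhibitor control.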

recombinantly expressed human PARP-1 enzyme, sequence (P09874 whole entry): as the sequence (P09874 whole entry, the tested form may be a part) above

SMILES | IC50
CCc1cc(-c2cncc(C(=O)NCCN3C(=O)CSC3=O)c2)c(C)[nH]c1=O [Example 254, 5′-Ethyl-2′-methyl-6′-oxo-1′,6′-dihydro-[3,3′]bipyridinyl-5-carboxylic acid [2-(2,4-dioxo-thiazolidin-3-yl)-ethyl]-amide] | 11.7 µM
CCc1cc(-c2cncc(C(=O)NCc3nccs3)c2)c(C)[nH]c1=O [Example 250, 5′-Ethyl-2′-methyl-6′-oxo-1′,6′-dihydro-[3,3′]bipyridinyl-5-carboxylic acid (thiazol-2-ylmethyl)-amide] | 0.64 µM
CCc1cc(-c2ccc(CNC(=O)Cc3ccccc3)o2)c(C)[nH]c1=O [Example 270, N-[5-(5-Ethyl-2-methyl-6-oxo-1,6-dihydro-pyridin-3-yl)-furan-2-ylmethyl]-2-phenyl-acetamide] | 1.18 µM
CCc1cc(-c2cncc(C(=O)NCCc3ccc(S(N)(=O)=O)cc3)c2)c(C)[nH]c1=O [Example 237, 5′-Ethyl-2′-methyl-6′-oxo-1′,6′-dihydro-[3,3′]bipyridinyl-5-carboxylic acid [2-(4-sulfamoyl-phenyl)-ethyl]-amide] | 1.34 µM
CCc1cc(-c2cncc(C(=O)NC(CC)c3ccc(C)nc3)c2)c(C)[nH]c1=O (stereo not drawn) [Example 224, 5′-Ethyl-2′-methyl-6′-oxo-1′,6′-dihydro-[3,3′]bipyridinyl-5-carboxylic acid [1-(6-methyl-pyridin-3-yl)-propyl]-amide] | 5.9 µM
CCc1cc(-c2ccc(C(=O)N3CCC(O)C3)cn2)c(C)[nH]c1=O (stereo not drawn) [Example 210, 5′-Ethyl-5-(3-hydroxy-pyrrolidine-1-carbonyl)-2′-methyl-1′H-[2,3′]bipyridinyl-6′-one] | 12.1 µM
CCc1cc(-c2cncc(C(=O)NCCN3CCOCC3)c2)c(C)[nH]c1=O [Example 241, 5′-Ethyl-2′-methyl-6′-oxo-1′,6′-dihydro-[3,3′]bipyridinyl-5-carboxylic acid (2-morpholin-4-yl-ethyl)-amide] | 1.25 µM
CCc1cc(-c2cccc(C(=O)NCCc3ccc([N+](=O)[O-])cc3)n2)c(C)[nH]c1=O [Example 205, 5′-Ethyl-2′-methyl-6′-oxo-1′,6′-dihydro-[2,3′]bipyridinyl-6-carboxylic acid [2-(4-nitro-phenyl)-ethyl]-amide] | 0.57 µM
CCc1cc(-c2cncc(C(=O)Nc3cc(C(C)(C)C)on3)c2)c(C)[nH]c1=O [Example 259, 5′-Ethyl-2′-methyl-6′-oxo-1′,6′-dihydro-[3,3′]bipyridinyl-5-carboxylic acid (5-tert-butyl-isoxazol-3-yl)-amide] | 0.73 µM
CCc1cc(-c2ccc(C=NOCCN3CCCC3)o2)c(C)[nH]c1=O [Example 199, 3-Ethyl-2-methyl-6-oxo-1,6-dihydropyridin-3-yl)furan-2-carbaldehyde O-(2-pyrrolidin-1-ylethyl)oxime hydrochloride] | 0.18 µM
CCc1cc(-c2ccc(S(=O)(=O)NCCc3ccccn3)s2)c(C)[nH]c1=O [Example 43A, 5-(5-Ethyl-2-methyl-6-oxo-1,6-dihydropyridin-3-yl)thiophene-2-sulfonic acid 2-(pyridin-2-yl)ethylamide] | 0.67 µM
CCc1cc(-c2cncc(C(=O)Nc3ccc(C(C)=O)cc3)c2)c(C)[nH]c1=O [Example 246, 5′-Ethyl-2′-methyl-6′-oxo-1′,6′-dihydro-[3,3′]bipyridinyl-5-carboxylic acid (4-acetyl-phenyl)-amide] | 0.64 µM
CCc1cc(-c2cncc(C(=O)Nc3cccc(OC)c3)c2)c(C)[nH]c1=O [Example 248, 5′-Ethyl-2′-methyl-6′-oxo-1′,6′-dihydro-[3,3′]bipyridinyl-5-carboxylic acid (3-methoxy-phenyl)-amide] | 0.85 µM
CCc1cc(-c2cc(C(=O)NCCN3CCOCC3)ccn2)c(C)[nH]c1=O [Example 217, 5′-Ethyl-2′-methyl-6′-oxo-1′,6′-dihydro-[2,3′]bipyridinyl-4-carboxylic acid (2-morpholin-4-yl-ethyl)-amide] | 2.87 µM
CCc1cc(-c2ccc(CN(C)Cc3ccccc3)o2)c(C)[nH]c1=O [Example 179, 5-{5-[(Benzylmethylamino)methyl]furan-2-yl)-3-ethyl-6-methyl-1H-pyridin-2-one] | 2.11 µM
CCc1cc(-c2cccc(CN3CCC(O)CC3)n2)c(C)[nH]c1=O [Example 182I, 5′-Ethyl-6-(4-hydroxy-piperidin-1-ylmethyl)-2′-methyl-1′H-[2,3′]bipyridinyl-6′-one] | 8.61 µM
CCc1cc(-c2cncc(C(=O)NCC(O)c3ccccc3)c2)c(C)[nH]c1=O (stereo not drawn) [Example 253, 5′-Ethyl-2′-methyl-6′-oxo-1′,6′-dihydro-[3,3′]bipyridinyl-5-carboxylic acid (2-hydroxy-2-phenyl-ethyl)-amide] | 0.49 µM
CCc1cc(-c2cncc(C(=O)NCCc3ccccc3)c2)c(C)[nH]c1=O [Example 236, 5′-Ethyl-2′-methyl-6′-oxo-1′,6′-dihydro-[3,3′]bipyridinyl-5-carboxylic acid phenethyl-amide] | 0.44 µM
CCc1cc(-c2ccc(C(=O)NC3CCCC3)cn2)c(C)[nH]c1=O [Example 212, 5′-Ethyl-2′-methyl-6′-oxo-1′,6′-dihydro-[2,3′]bipyridinyl-5-carboxylic acid cyclopentylamide] | 12.9 µM
CCc1cc(-c2cc(C(=O)NCCc3ccc([N+](=O)[O-])cc3)ccn2)c(C)[nH]c1=O [Example 213, 5′-Ethyl-2′-methyl-6′-oxo-1′,6′-dihydro-[2,3′]bipyridinyl-4-carboxylic acid [2-(4-nitro-phenyl)-ethyl]-amide] | 0.21 µM

The molecules below were run on intracellular synthesis of poly(ADP-ribose) in HL60 cells (assay: Cell-based PARP assay (poly(ADP-ribose) immunodetection in fixed cells)). Conditions: Homo sapiens, HL-60, overnight incubation with compound, serum-free media.
Protocol: The following example illustrates the efficacy of the compounds of this invention in inhibiting the effects of PARP in a cell based assay.
Reagents: Media RMPI 1640+Glutamax: Gibco 61870-044); TBST/milk, TBST (Sigma T93039) containing 5% skimmed milk (Nestle Carnation nonfat dry milk)
HL60 cells at […] in serum free media are seeded into the wells of a 96-well plate at 100 μL/well. The plate is pre-incubated for 3 hr under normal tissue culture conditions. One hundred μL of serum-free media containing compound at 2× the required concentration in 0.6% DMSO are added (or 0.6% DMSO only to controls and blanks). The plate is incubated overnight under normal tissue culture conditions, then centrifuged at 190×g for 5 min at 4° C. to pellet cells. The media is carefully removed by aspiration, and the cells are incubated in 100 μL/well ice-cold 0.56% KCl for 2 min on ice. The plate is centrifuged as above to pellet cells, the KCl removed by aspiration, and 100 μL/well ice-cold methanol added. After 4 min on ice, methanol is removed by aspiration and the cells air-dried for 10-15 min at rt. The cells are washed with PBS×3, then washed with TBST/milk (1 wash, 5 min incubation at rt). The cells are incubated with 100 μL/well 0.25% Triton X 100 in PBS for 10 min at RT, then washed x# with PBS and ×1 with TBST. The cells are blocked for 1 hr with TBST/milk (200 μL/well) and then washed ×1 with TBST. The fixed cells are incubated with primary antibody (Calbiochem cat no. 528815) at 1:2000 dilution in TBST/milk (100 μL/well, overnight at 4 deg C.). The cells are washed with TBST (2 rinses, 1×15 min, 2×5 min at RT). The cells are incubated with secondary antibody (anti-rabbit Ig-biotin conjugate, Amersham RPN1004) in TBST/milk at 1:3500 dilution, 100 μL/well for 1 hr at RT. The cells are washed with TBST (2 rinses, 1×15 min, 2×5 min at RT). The cells are then incubated with 100 μL/well of 4-MUP (Sigma, M3168) in the dark for 4 hrs. The fluorescence is read using a plate reader (excitation at 360 nm, emission at 440 nm). To calculate compound effects, the fluorescence of the blank (no cells) is subtracted from all data. Fluorescence obtained with a standard cell-permeable potent inhibitor at 30 μM is subtracted from all other groups as this appears to represent a true blank. Compound effects can then be determined: a PARP inhibitor blocks the intracellular synthesis of poly(ADP-ribose), and results in a decreased reactivity (reduced final fluorescence) with primary antibody in the fixed and permeabilized cells.
The results obtained from this study are expressed as EC50 (median effective concentration of the test compound that was effective in preventing the cell death—expressed in micromolar (μM) concentration) for each of the tested compounds and are summarized in Table 2.

SMILES | EC50
CCc1cc(-c2ccc(S(=O)(=O)NC3CCN(Cc4ccccc4)CC3)s2)c(C)[nH]c1=O [Example 39, 5-(5-Ethyl-2-methyl-6-oxo-1,6-dihydropyridin-3-yl)thiophene-2-sulfonic acid (1-benzylpiperidin-4-yl)amide hydrochloride] | 500 nM
CCc1cc(-c2ccc(S(=O)(=O)NCCc3cccnc3)s2)c(C)[nH]c1=O [Example 107, 5-(5-Ethyl-2-methyl-6-oxo-1,6-dihydropyridin-3-yl)thiophene-2-sulfonic acid (2-pyridin-3-yl-ethyl)amide hydrochloride] | 30 nM
CCc1cc(-c2ccc(S(=O)(=O)NCCc3ccncc3)s2)c(C)[nH]c1=O [Example 109, 5-(5-Ethyl-2-methyl-6-oxo-1,6-dihydropyridin-3-yl)thiophene-2-sulfonic acid (2-pyridin-4-yl-ethyl)amide hydrochloride] | 240 nM
CCc1cc(-c2ccc(CNCCOc3ccccc3)s2)c(C)[nH]c1=O [Example 146, 3-Ethyl-6-methyl-5-{5-[(2-phenoxyethylamino)-methyl]thiophen-2-yl}-1H-pyridin-2-one hydrochloride] | 970 nM
CCc1cc(-c2ccc(S(=O)(=O)NCc3nc4ccccc4[nH]3)s2)c(C)[nH]c1=O [Example 118, 5-(5-Ethyl-2-methyl-6-oxo-1,6-dihydro-pyridin-3-yl)thiophene-2-sulfonic acid (1H-benzimidazol-2-ylmethyl)amide hydrochloride] | 30000 nM
